# In patent publication US10434092B2, “Dosage regimen for an alpha-isoform selective phosphatidylinositol 3-kinase inhibitor” (Novartis AG, priority 2013, dated 2019):
# Several values for one entry are separate records, joined by “and”; a condition that tells them apart may be missing. Identical values can stand only once.
# Legend:
# [1] = tested on: S473P-Akt; assay: In vivo S473P-Akt inhibition in Rat1-myr-p110α tumors (RPPA) versus tumor drug concentration; set-up: species or system nude mice and rats
# Experimental: (§1) Rat1-Myr-p110α tumors were established by subcutaneous injection of […] in 100 μL HBSS (Sigma #H8264) into the right flank of nude mice or nude rats. For the efficacy experiments, treatments were initiated when the mean tumor volumes were approx. 300 mm^3 (14 to 15 days post tumor cells injection).
# (§2) Blood samples were collected at different time points post the last treatment (1 hour, 2 hour, 4 hour, 8 hour, 12 hour, 16 hour and 24 hour, n=2-3 per time point) into tubes coated with K-EDTA. Blood samples were centrifuged and collected plasma immediately frozen at −80° C. until final processing. Tumors were collected at sacrifice at 7 time points (1 hour, 2 hour, 4 hour, 8 hour, 12 hour, 16 hour and 24 hour, n=2-3 per time point), snap frozen and kept at −80° C. until final processing.
# After dissection, the tumors were snap-frozen in liquid nitrogen and stored at −80° C. Frozen tumors were pulverized using a Retsch ball mixer mill MM20 (Arlesheim, Switzerland) with metal cylinders that were pre-cooled to −80° C. in a freezer. Powder was scrapped from metal cylinders on dry ice and transferred into pre-cooled 1.5 mL Eppendorf tubes while avoiding melting.
# (§3) Following addition of 25 μL of internal standard (1 μg/mL) to analytical aliquots (25 μL) of plasma or (20 mg) tumor powder, the proteins were precipitated by the addition of 200 μL acetonitrile. The supernatant were transferred in a fresh vial. After evaporation to dryness the samples were re-dissolved in 60 μL acetonitrile/water (1/1 v/v). An aliquot (5 μL) of this solution was separated on a ACQUITY UPLC BEH C18 column (Waters™ 1.7 μm particle size, 2.1×50 mm) with a mobile phase consisting of a mixture of 0.1% formic acid in water (solvent A) and 0.1% formic acid in acetonitrile (solvent B). Gradient programming was used with a flow rate of 600 μL/min. After equilibration with 95% solvent A, 5 μL of sample was injected. Following a latency period of 0.25 min, the sample was eluted with a linear gradient of 5-100% solvent B over a period of 0.65 minutes followed by a 0.35 minutes hold. The column was prepared for the next sample by re-equilibrating over 0.25 minutes to the starting conditions. […]
# Each sample was vortexed and centrifuged for 10 minutes at 10,000 rpm. […] The protein concentrations were quantified using the Coomassie Plus Kit (#23236 Thermo Scientific, Rockford, Ill., USA) according to the protocol of the manufacturer. The diluted samples were transferred into a 96 well plate (#269620, NUNC) and the absorbance was measured at 595 nm using a SpectraMAX Plus plate reader from Molecular Devices. The Protein amount was calculated using the Softmax Pro 5.0 software (Molecular Devices, USA) and then normalized on 1 mg/mL using the corresponding lysis buffer. […]
# [2] = Plasma protein binding; assay type: in vitro ADME; conditions: mouse, read-out: plasma protein binding (PPB) (converted)
# [3] = tested on: S473P-Akt; assay: In vitro cellular S473P-Akt inhibition; assay type: cell-based
# [4] = tested on: Rat1-myr-p110α tumor; assay: Antitumor activity in the Rat1-myr-p110α tumor model, nude mice; assay type: in vivo; conditions: oral
# Experimental: (§4) Experiments were performed in female Hsd: Athymic Nude-nu CPB mice (Harlan Winkelmann, Germany). Animals were between 12 and 14 weeks of age at treatment start and housed under Optimized Hygienic Conditions (OHC) in Makrolon type III cages (max. 5 animals per cage) with free access to food and water. In addition, experiments were also performed in female nude Rowett rats Hsd: RH-Fox1mu (Harlan (The Netherlands). Animals were 6-9 weeks of age at time of application of the compound. Animals were housed under Optimized Hygienic Conditions in Makrolon type III cages (max. 2 animals per cage) with free access to food and water. They were allowed to adapt for at least 6 days before the experiment was started.
# (§5) Rat1-Myr-p110α cells were grown in Dulbecco's Modified Eagle Medium (DMEM) culture medium containing 4.5 g/l glucose supplemented with 10% heat-inactivated fetal calf serum (FCS), 2 mM L-glutamine, 1 mM sodium pyruvate and incubated at 37° C. in a 5% CO2 humidified atmosphere. Cells were harvested with trypsin-EDTA, re-suspended in culture medium (with additives) and counted with a Casy® system. Finally, cells are centrifuged, suspended in ice-cold Hanks' balanced salt solution (HBSS) at a concentration of 3×10^7 cells/ml. Cell culture reagents were purchased from BioConcept (Allschwil, Switzerland).
# as §1
# (§6) Fresh suspensions were prepared once every 4 days and stored at 4° C.
# (§7) Tumor volumes were measured with calipers and determined according to the formula: length×diameter^2×[…]/6. In addition to presenting changes of tumor volumes over the course of treatments, antitumor activity is expressed as T/C % (mean change of tumor volume of treated animals/mean change of tumor volume of control animals)×100. Regressions (%) were calculated according to the formula ((mean tumor volume at end of treatment−mean tumor volume at start of treatment)/mean tumor volume at start of treatment)×100. Body weights and tumor volumes were recorded two to three times a week.
# [5] = tested on: Rat1-myr-p110α tumor; assay: Antitumor activity in the Rat1-myr-p110α tumor model, nude rats; assay type: in vivo; conditions: nude rat, oral
# Experimental: as §4, §5, §1, §6, §7
# [6] = tested on: Rat1-myr P110a tumors; assay: PK/PD/efficacy relationship (time over in vivo IC80 versus anti-tumor efficacy); set-up: species or system mice and rats
# Source text: Phoenix WinNonlin 6.3 (Pharsight) was used to simulate the mean plasma concentration time profiles after multiple dosing using the non-compartmental nonparametric superposition approach of data generated either from a mouse or rat efficacy study. The predictions are based upon an accumulation ratio computed from the terminal slope (Lambda Z), allowing predictions from simple or complicated dosing schedules.
# FIG. 6 provides the relationship between exposure (as measured by time over the in vivo IC80) and anti-tumor efficacy. Further, a nearly linear relationship is identified between the anti-tumor efficacy magnitude and duration of drug exposure (as measured by time over the in vivo IC80) over the IC80 (R^2=0.89; FIG. 7).
# [7] = Modulation of glucose and insulin levels, nude mice; assay type: in vivo; conditions: versus plasma drug concentration
# [8] = Modulation of glucose and insulin levels, nude rats; assay type: in vivo; conditions: versus plasma drug concentration
# [9] = PK/PD/tolerability relationship (time above hyperglycemia threshold versus body weight loss); assay type: in vivo, nude mice and rats; conditions: mice and rats, threshold 20 μmol/L mice
# Source text: From this relationship, it is understood that the compound exposure levels should be sustained for no more than 35% of the dosing interval above the hyperglycemia cut-off to maintain body weight loss below 5% in mice and rats.
# [10] = Human plasma exposure; assay type: in vivo; conditions: po, human dose 300-350 mg/day p.o.
# Experimental: The corresponding total dose for qd in continuous daily schedule p.o. dose would be 14 mg/kg.
# [11] = Pharmacokinetics after oral administration, nude mice; assay type: in vivo; conditions: nude mice, 12.5, 25 and 50 mg/kg qd
# Experimental: as §2
# as §3, with “hold.” for “hold. The column was prepared for the next sample by re-equilibrating over 0.25 minutes to the starting conditions.”
# [12] = Pharmacokinetics after oral administration, nude rats; assay type: in vivo; conditions: nude rats, 12.5, 25, 40 and 80 mg/kg qd
# Experimental: as §2
# as §3, with “hold.” for “hold. The column was prepared for the next sample by re-equilibrating over 0.25 minutes to the starting conditions.”
# [13] = tested on: advanced solid malignancies carrying an alteration in the PIK3CA gene; conditions: patients treated at ≥270 mg/day, oral, continuous daily schedule; breast, colorectal, endometrial, cervical cancer (1 patient each); as of Feb. 15, 2013; cited from earlier work
# [14] = once or twice per day continuous daily schedule, oral; cited from earlier work
# [15] = target: Vps34 (Homo sapiens, UniProt Q8NEB9); conditions: cited from earlier work
# Sequence of Vps34 (Q8NEB9 whole entry, species assumed): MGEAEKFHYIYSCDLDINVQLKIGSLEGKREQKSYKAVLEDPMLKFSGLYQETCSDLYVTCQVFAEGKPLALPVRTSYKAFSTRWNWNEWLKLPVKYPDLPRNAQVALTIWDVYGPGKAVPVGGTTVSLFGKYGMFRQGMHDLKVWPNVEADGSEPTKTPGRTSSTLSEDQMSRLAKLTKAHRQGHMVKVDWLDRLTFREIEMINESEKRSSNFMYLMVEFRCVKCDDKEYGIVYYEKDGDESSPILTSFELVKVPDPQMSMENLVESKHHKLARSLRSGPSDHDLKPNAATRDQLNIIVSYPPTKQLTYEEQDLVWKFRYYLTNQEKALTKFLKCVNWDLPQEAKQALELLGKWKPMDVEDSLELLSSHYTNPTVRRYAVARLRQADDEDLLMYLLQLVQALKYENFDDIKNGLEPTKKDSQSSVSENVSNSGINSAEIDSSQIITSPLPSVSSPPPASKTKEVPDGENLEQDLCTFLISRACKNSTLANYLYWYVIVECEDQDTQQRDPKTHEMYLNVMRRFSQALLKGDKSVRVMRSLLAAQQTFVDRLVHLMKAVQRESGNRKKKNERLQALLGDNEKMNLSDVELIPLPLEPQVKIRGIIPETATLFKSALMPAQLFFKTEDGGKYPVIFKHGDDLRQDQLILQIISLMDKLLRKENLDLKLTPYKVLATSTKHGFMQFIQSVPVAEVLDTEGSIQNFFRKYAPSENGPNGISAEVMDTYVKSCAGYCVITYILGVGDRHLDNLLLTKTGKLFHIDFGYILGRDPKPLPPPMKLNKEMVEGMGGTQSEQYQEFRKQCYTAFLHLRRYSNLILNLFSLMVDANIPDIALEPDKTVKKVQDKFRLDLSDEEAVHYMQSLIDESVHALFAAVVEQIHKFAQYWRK
# [16] = target: mTOR (Homo sapiens, UniProt P42345); conditions: cited from earlier work
# [17] = target: DNA-PK (Homo sapiens, UniProt P78527); conditions: cited from earlier work
# [18] = target: ATR (Homo sapiens, UniProt Q13535); conditions: cited from earlier work
# Sequence of ATR (Q13535 whole entry): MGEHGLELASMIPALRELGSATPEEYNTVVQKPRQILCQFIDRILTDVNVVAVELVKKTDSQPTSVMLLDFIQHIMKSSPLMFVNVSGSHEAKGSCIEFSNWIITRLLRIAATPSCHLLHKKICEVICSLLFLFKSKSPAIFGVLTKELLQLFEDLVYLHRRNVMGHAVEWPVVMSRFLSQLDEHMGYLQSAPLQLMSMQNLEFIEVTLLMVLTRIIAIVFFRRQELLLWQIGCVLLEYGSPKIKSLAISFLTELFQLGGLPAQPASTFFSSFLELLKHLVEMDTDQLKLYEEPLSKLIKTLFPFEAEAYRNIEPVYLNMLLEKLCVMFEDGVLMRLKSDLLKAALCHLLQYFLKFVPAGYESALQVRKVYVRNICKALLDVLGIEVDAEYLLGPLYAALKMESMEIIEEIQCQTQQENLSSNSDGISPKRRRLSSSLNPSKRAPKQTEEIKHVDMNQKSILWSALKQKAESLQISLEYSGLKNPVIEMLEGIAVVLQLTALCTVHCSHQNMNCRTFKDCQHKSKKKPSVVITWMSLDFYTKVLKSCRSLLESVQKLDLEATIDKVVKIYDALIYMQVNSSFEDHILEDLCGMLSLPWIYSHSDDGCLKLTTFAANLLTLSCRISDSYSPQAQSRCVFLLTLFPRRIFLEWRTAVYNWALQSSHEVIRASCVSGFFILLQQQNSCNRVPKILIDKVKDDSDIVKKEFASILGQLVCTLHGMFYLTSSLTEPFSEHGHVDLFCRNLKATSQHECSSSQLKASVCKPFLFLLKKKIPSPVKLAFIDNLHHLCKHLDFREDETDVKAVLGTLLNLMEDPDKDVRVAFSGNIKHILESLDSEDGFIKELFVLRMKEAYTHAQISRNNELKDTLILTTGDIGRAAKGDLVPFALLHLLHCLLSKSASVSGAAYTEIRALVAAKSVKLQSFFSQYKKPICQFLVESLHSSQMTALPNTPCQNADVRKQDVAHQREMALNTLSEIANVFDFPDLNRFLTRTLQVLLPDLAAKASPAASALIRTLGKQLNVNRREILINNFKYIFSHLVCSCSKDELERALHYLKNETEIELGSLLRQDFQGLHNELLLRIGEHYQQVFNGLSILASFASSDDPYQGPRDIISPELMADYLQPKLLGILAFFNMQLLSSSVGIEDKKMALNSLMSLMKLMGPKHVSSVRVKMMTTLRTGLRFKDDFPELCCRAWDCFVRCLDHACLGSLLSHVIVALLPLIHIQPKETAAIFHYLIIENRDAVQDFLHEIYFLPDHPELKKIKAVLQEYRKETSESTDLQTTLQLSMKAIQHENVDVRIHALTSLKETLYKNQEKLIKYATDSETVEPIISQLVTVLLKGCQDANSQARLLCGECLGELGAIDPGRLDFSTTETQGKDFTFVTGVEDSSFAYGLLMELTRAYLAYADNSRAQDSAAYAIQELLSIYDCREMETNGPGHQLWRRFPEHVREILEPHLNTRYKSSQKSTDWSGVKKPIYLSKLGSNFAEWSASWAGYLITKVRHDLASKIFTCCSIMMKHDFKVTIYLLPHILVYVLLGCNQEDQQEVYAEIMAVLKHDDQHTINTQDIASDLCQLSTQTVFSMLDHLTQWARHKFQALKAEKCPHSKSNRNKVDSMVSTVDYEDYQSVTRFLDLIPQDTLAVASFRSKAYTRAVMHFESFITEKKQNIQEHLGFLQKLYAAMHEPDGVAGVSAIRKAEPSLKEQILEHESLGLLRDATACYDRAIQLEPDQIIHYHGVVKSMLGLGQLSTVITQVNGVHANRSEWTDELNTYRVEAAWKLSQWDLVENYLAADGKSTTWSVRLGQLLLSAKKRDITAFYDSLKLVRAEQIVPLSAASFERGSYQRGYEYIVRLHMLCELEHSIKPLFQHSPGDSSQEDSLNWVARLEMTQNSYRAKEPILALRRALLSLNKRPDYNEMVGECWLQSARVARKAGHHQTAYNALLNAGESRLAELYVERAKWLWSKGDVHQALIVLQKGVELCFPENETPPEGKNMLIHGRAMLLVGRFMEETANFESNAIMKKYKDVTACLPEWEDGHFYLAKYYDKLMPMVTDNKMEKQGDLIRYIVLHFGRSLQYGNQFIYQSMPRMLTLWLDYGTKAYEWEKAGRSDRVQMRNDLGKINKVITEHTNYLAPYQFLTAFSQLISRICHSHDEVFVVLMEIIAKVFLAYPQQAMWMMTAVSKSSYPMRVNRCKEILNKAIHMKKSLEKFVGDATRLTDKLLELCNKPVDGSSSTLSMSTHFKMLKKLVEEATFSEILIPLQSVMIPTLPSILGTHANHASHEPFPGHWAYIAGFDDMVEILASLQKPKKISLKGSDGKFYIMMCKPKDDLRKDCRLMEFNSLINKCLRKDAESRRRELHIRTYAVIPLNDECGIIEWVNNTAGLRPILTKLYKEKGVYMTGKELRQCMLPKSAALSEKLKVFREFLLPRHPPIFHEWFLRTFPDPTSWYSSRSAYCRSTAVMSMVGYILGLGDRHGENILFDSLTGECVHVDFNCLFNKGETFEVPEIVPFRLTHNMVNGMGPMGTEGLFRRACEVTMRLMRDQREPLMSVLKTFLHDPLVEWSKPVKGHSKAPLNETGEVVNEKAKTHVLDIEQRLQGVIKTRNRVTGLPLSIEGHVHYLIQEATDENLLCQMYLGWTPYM
# Sequence of ATR (Q8WXE1 whole entry partner): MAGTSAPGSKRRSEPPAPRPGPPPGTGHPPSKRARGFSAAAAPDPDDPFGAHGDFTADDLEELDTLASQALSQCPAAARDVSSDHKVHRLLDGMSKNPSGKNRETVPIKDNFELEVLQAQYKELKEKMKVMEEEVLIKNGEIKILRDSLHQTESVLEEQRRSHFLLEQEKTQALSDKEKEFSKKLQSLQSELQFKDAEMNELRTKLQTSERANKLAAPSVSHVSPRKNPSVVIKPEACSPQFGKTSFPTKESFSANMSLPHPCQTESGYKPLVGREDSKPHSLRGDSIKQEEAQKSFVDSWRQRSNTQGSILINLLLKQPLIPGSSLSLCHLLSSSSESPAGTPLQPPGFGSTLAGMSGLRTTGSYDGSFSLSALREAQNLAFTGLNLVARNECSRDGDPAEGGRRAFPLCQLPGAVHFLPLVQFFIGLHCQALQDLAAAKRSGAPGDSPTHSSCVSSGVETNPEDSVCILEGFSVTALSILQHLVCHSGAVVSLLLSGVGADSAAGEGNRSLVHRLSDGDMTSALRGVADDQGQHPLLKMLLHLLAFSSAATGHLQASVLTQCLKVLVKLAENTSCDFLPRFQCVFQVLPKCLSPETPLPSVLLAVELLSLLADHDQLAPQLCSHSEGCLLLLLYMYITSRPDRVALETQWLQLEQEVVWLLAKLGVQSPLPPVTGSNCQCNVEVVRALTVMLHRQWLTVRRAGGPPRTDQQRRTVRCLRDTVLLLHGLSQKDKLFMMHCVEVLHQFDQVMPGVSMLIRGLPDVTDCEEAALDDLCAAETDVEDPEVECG
smiles,measurement,setting,value
"Cc1nc(NC(=O)N2CCC[C@H]2C(N)=O)sc1-c1ccnc(C(C)(C)C(F)(F)F)c1 [Compound A, (S)-Pyrrolidine-1,2-dicarboxylic acid 2-amide 1-({4-methyl-5-[2-(2,2,2-trifluoro-1,1-dimethyl-ethyl)-pyridin-4-yl]-thiazol-2-yl}-amide)]",IC50,"[1]; Mus musculus, read-out: in vivo IC50, tumor concentration giving 50% S473P-Akt inhibition",600 nM
same,IC80,"[1]; Mus musculus, read-out: in vivo IC80 corrected for plasma protein binding",352 nM
same,IC80,"[1]; Mus musculus, tumor concentration, versus controls, Rat1-myr-p110α tumors, read-out: in vivo IC80, tumor concentration giving 80% S473P-Akt inhibition",4000 nM
same,IC50,"[1]; corrected for mouse PPB, read-out: in vivo IC50 corrected for plasma protein binding",53 nM
same,fraction unbound,[2],0.088
same,IC50,[3],74 nM
same,IC80,[3],301 nM
same,Efficacy T/C (observed),[4]; 6.25 mg 2qd,0.02
same,Efficacy T/C (observed),[4]; 6.25 mg qd,0.19
same,Efficacy Regression (observed),[4]; 12.5 mg 2qd,−0.55
same,Efficacy T/C (observed),[4]; 12.5 mg qd,0.09
same,Efficacy Regression (observed),[4]; 20 mg 2qd,−0.80
same,Efficacy Regression (observed),[4]; 25 mg qd,−0.53
same,Efficacy Regression (observed),[4]; 40 mg 2qd,−0.86
same,Efficacy Regression (observed),[4]; 50 mg qd,−0.65
same,Efficacy T/C (observed),[5]; 6.25 mg qd,0.22
same,Efficacy T/C (observed),[5]; 12.5 mg qd,0.05
same,Efficacy Regression (observed),[5]; 25 mg qd,−0.65
same,Efficacy Regression (observed),[5]; 50 mg qd,−0.80
same,fraction of the dosing interval with 80% inhibition of Akt phosphorylation required to induce tumor stasis,[6],at least 25 % of the dosing interval
same,insulin plasma levels,[7],increased proportionally
same,insulin plasma levels,[8],increased proportionally
same,fraction of the dosing interval above the hyperglycemia cut-off that maintains body weight loss below 5%,[9],no more than 35 % of the dosing interval
same,AUC,[10],35000 ng·h/mL and 80 µM·h
same,Cmax,[10],3500 ng/mL and 8 µM
same,dose linearity of pharmacokinetics,[11],linear
same,dose linearity of pharmacokinetics,[12],linear
same,clinical response,[13],confirmed partial responses
same,decreased appetite,[14],34 % of patients
same,diarrhea,[14],35 % of patients
same,hyperglycemia,[14],49 % of patients
same,nausea,[14],43 % of patients
same,rash and hypersensitivity,[14],34 % of patients
same,inhibitory activity against Vps34,[15],lacks inhibitory activity
same,inhibitory activity against mTOR,[16],lacks inhibitory activity
same,inhibitory activity against DNA-PK,[17],lacks inhibitory activity
same,inhibitory activity against ATR,[18],lacks inhibitory activity
